# Measurements taken from US11725036B2, “Modified lipidated relaxin B chain peptides and their therapeutic use” (Sanofi, priority 2018, dated 2023).
# Starred links: 1 amine or outer side, 2 acyl side, 3 side chain; linkers in the order of their positions; H or OH if unused. Non-standard residues stand in square brackets, D forms with d. Residues, ends and D or L forms follow the SMILES beside them. Groups on a side chain read outwards from the residue. *: point of attachment. X1 = CCCCCCCCCCCCCCCC(=O)N[C@@H](CCC(=O)N[C@@H](CCC(=O)N[C@@H](CCC(=O)NCCCOCCOCCOCCCNC(=O)CCC(=O)NCCCOCCOCCOCCCNC(=O)CCC(=O)NCCCOCCOCCOCCCN*)C(=O)O)C(=O)O)C(=O)O; Trp(5-F) = N[C@@H](Cc1c[nH]c2ccc(F)cc12)C(=O)O; Suc = O=C(CCC(=O)[*:2])[*:1]; αMeK = C[C@](N)(CCCCN)C(=O)O; hLys = NCCCCC[C@H](N)C(=O)O; Aib = CC(C)(N)C(=O)O
# Biological target: T1, RXFP1 (Homo sapiens, UniProt Q9HBX9)
# T1 construct: OVCAR5 cells expressing endogenous RXFP1; endogenous in cells; host or cells: OVCAR5
# T1 sequence (Q9HBX9 1-757): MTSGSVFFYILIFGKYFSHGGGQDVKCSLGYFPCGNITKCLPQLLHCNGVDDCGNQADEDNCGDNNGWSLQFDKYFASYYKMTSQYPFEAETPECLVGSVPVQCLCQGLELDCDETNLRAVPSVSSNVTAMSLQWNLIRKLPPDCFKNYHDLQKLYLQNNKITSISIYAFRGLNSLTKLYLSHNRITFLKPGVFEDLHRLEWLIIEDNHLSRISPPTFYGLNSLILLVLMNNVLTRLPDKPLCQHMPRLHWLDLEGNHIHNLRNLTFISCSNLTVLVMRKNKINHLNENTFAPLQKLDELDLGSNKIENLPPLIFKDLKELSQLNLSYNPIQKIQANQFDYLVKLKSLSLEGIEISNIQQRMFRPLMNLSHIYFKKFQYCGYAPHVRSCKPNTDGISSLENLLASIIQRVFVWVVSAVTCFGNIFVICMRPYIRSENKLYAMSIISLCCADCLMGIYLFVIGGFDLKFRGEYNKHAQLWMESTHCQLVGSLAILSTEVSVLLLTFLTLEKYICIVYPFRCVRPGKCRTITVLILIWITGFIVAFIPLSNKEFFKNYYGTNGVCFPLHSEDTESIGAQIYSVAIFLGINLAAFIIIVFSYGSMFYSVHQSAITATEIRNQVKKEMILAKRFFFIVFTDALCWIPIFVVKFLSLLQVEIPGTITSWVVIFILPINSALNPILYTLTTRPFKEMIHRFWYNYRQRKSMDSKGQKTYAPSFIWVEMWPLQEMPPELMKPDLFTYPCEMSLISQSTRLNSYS
# Assay: OVCAR5 cAMP assay (HTRF)
# Type: cell-based
# Details: for Emax: OVCAR 5 cells, maximal cAMP relative to H2-relaxin; for EC50: OVCAR 5 cells expressing endogenous RXFP1, cAMP readout
# Outline: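 Peptide agonism measured as intracellular cAMP (HTRF) after 30 min at 37° C in serum-free medium, following 40 min 1 mM IBMX preincubation of OVCAR5 cells. Nonlinear regression gave EC50; Emax % = 100 × compound maximal cAMP / H2-relaxin maximal cAMP.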
Structure (SMILES),Emax,EC50
CCCCCCCCCCCCCCCC(=O)N[C@@H](CCC(=O)N[C@@H](CCC(=O)N[C@@H](CCC(=O)NCCCOCCOCCOCCCNC(=O)CCC(=O)NCCCOCCOCCOCCCNC(=O)CCC(=O)NCCCOCCOCCOCCCNC(=O)CCC(=O)NCCCC[C@H](NC(=O)CNC(=O)[C@H](CCC(=O)O)NC(=O)C(C)(C)NC(=O)C(C)(C)NC(=O)[C@@H](NC(=O)[C@H](CCCCNC(C)=O)NC(=O)[C@H](C)NC(=O)[C@H](CCCNC(=N)N)NC(=O)[C@@H](NC(=O)[C@H](CCCCN)NC(=O)[C@H](CCC(=O)O)NC(=O)[C@H](CCCNC(=N)N)NC(=O)CNC(=O)[C@H](CCC(=O)O)NC(=O)[C@H](CC(C)C)NC(C)=O)C(C)C)[C@@H](C)CC)C(=O)N[C@@H](CO)C(=O)N[C@H](C(=O)N[C@@H](Cc1c[nH]c2ccccc12)C(=O)N[C@@H](CO)C(=O)NC(C)(C)C(=O)N[C@@H](CCCNC(=N)N)C(=O)N[C@@H](CCCNC(=N)N)C(=O)N[C@@H](CCCCNC(C)=O)C(N)=O)[C@@H](C)O)C(=O)O)C(=O)O)C(=O)O [compound 31] (Ac-LEGREKVRAK(Ac)I[Aib][Aib]EGK([Suc-X1])STWS[Aib]RRK(Ac)-NH2),94%,–
CCCCCCCCCCCCCCCC(=O)N[C@@H](CCC(=O)N[C@@H](CCC(=O)N[C@@H](CCC(=O)NCCCOCCOCCOCCCNC(=O)CCC(=O)NCCCOCCOCCOCCCNC(=O)CCC(=O)NCCCOCCOCCOCCCNC(=O)CCC(=O)NCCCC[C@H](NC(=O)CNC(=O)[C@H](CCC(=O)O)NC(=O)C(C)(C)NC(=O)C(C)(C)NC(=O)[C@@H](NC(=O)[C@H](CCCCNC(C)=O)NC(=O)[C@H](C)NC(=O)[C@H](CCCNC(=N)N)NC(=O)[C@@H](NC(=O)[C@H](CCCCN)NC(=O)[C@H](CCC(=O)O)NC(=O)[C@H](CCCNC(=N)N)NC(=O)CNC(=O)[C@H](CCC(=O)O)NC(=O)[C@H](CC(C)C)NC(C)=O)C(C)C)[C@@H](C)CC)C(=O)N[C@@H](CO)C(=O)N[C@H](C(=O)N[C@@H](Cc1ccccc1)C(=O)NC(C)(C)C(=O)N[C@@H](CCCCN)C(=O)N[C@@H](CCCNC(=N)N)C(=O)N[C@@H](C)C(=O)N[C@@H](CCCCNC(C)=O)C(N)=O)[C@@H](C)O)C(=O)O)C(=O)O)C(=O)O [compound 15] (Ac-LEGREKVRAK(Ac)I[Aib][Aib]EGK([Suc-X1])STF[Aib]KRAK(Ac)-NH2),85%,2.1 nM
CCCCCCCCCCCCCCCC(=O)N[C@@H](CCC(=O)N[C@@H](CCC(=O)N[C@@H](CCC(=O)NCCCOCCOCCOCCCNC(=O)CCC(=O)NCCCOCCOCCOCCCNC(=O)CCC(=O)NCCCOCCOCCOCCCNC(=O)CCC(=O)NCCCC[C@H](NC(=O)CNC(=O)[C@H](CCC(=O)O)NC(=O)C(C)(C)NC(=O)C(C)(C)NC(=O)[C@@H](NC(=O)[C@H](CCCCNC(C)=O)NC(=O)[C@H](C)NC(=O)[C@H](CCCNC(=N)N)NC(=O)[C@@H](NC(=O)[C@H](CCCCCN)NC(=O)[C@H](CCC(=O)O)NC(=O)[C@H](CCCNC(=N)N)NC(=O)CNC(=O)[C@H](CCC(=O)O)NC(=O)[C@H](CC(C)C)NC(C)=O)C(C)C)[C@@H](C)CC)C(=O)N[C@@H](CO)C(=O)N[C@H](C(=O)N[C@@H](Cc1ccccc1)C(=O)N[C@@H](CO)C(=O)N[C@@](C)(CCCCN)C(=O)N[C@@H](CCCNC(=N)N)C(=O)N[C@@H](C)C(=O)N[C@@H](CCCCNC(C)=O)C(N)=O)[C@@H](C)O)C(=O)O)C(=O)O)C(=O)O [compound 28] (Ac-LEGRE[hLys]VRAK(Ac)I[Aib][Aib]EGK([Suc-X1])STFS[αMeK]RAK(Ac)-NH2),88%,0.62 nM

# Second part, the compound after the results:
Emax,EC50,Structure (SMILES)
97%,0.19 nM,CCCCCCCCCCCCCCCC(=O)N[C@@H](CCC(=O)N[C@@H](CCC(=O)N[C@@H](CCC(=O)NCCCOCCOCCOCCCNC(=O)CCC(=O)NCCCOCCOCCOCCCNC(=O)CCC(=O)NCCCOCCOCCOCCCNC(=O)CCC(=O)NCCCC[C@H](NC(=O)CNC(=O)[C@H](CCC(=O)O)NC(=O)C(C)(C)NC(=O)C(C)(C)NC(=O)[C@@H](NC(=O)[C@H](CCCCNC(C)=O)NC(=O)[C@H](C)NC(=O)[C@H](CCCNC(=N)N)NC(=O)[C@@H](NC(=O)[C@H](CCCCN)NC(=O)[C@H](CCC(=O)O)NC(=O)[C@H](CCCNC(=N)N)NC(=O)CNC(=O)[C@H](CCC(=O)O)NC(=O)[C@H](CC(C)C)NC(C)=O)C(C)C)[C@@H](C)CC)C(=O)N[C@@H](CO)C(=O)N[C@H](C(=O)N[C@@H](Cc1ccccc1)C(=O)N[C@@H](CO)C(=O)N[C@@](C)(CCCCN)C(=O)N[C@@H](CCCNC(=N)N)C(=O)N[C@@H](C)C(=O)N[C@@H](CCCCN)C(N)=O)[C@@H](C)O)C(=O)O)C(=O)O)C(=O)O [compound 49] (Ac-LEGREKVRAK(Ac)I[Aib][Aib]EGK([Suc-X1])STFS[αMeK]RAK-NH2)
96%,0.45 nM,CCCCCCCCCCCCCCCC(=O)N[C@@H](CCC(=O)N[C@@H](CCC(=O)N[C@@H](CCC(=O)NCCCOCCOCCOCCCNC(=O)CCC(=O)NCCCOCCOCCOCCCNC(=O)CCC(=O)NCCCOCCOCCOCCCNC(=O)CCC(=O)NCCCC[C@H](NC(=O)CNC(=O)[C@H](CCC(=O)O)NC(=O)C(C)(C)NC(=O)C(C)(C)NC(=O)[C@@H](NC(=O)[C@H](CCC(N)=O)NC(=O)[C@H](C)NC(=O)[C@H](CCCNC(=N)N)NC(=O)[C@@H](NC(=O)[C@H](CCCCN)NC(=O)[C@H](CCC(=O)O)NC(=O)[C@H](CCCNC(=N)N)NC(=O)CNC(=O)[C@H](CCC(=O)O)NC(=O)[C@H](CC(C)C)NC(C)=O)C(C)C)[C@@H](C)CC)C(=O)N[C@@H](CO)C(=O)N[C@H](C(=O)N[C@@H](Cc1ccccc1)C(=O)N[C@@H](CO)C(=O)N[C@@](C)(CCCCN)C(=O)N[C@@H](CCCNC(=N)N)C(=O)N[C@@H](C)C(=O)N[C@@H](CCCCNC(C)=O)C(N)=O)[C@@H](C)O)C(=O)O)C(=O)O)C(=O)O [compound 48] (Ac-LEGREKVRAQI[Aib][Aib]EGK([Suc-X1])STFS[αMeK]RAK(Ac)-NH2)
95%,0.64 nM,CCCCCCCCCCCCCCCC(=O)N[C@@H](CCC(=O)N[C@@H](CCC(=O)N[C@@H](CCC(=O)NCCCOCCOCCOCCCNC(=O)CCC(=O)NCCCOCCOCCOCCCNC(=O)CCC(=O)NCCCOCCOCCOCCCNC(=O)CCC(=O)NCCCC[C@H](NC(=O)CNC(=O)[C@H](CCC(=O)O)NC(=O)C(C)(C)NC(=O)C(C)(C)NC(=O)[C@@H](NC(=O)[C@H](CCCCN)NC(=O)[C@H](C)NC(=O)[C@H](CCCNC(=N)N)NC(=O)[C@@H](NC(=O)[C@H](CCCCN)NC(=O)[C@H](CCC(=O)O)NC(=O)[C@H](CCCNC(=N)N)NC(=O)CNC(=O)[C@H](CCC(=O)O)NC(=O)[C@H](CC(C)C)NC(C)=O)C(C)C)[C@@H](C)CC)C(=O)N[C@@H](CO)C(=O)N[C@H](C(=O)N[C@@H](Cc1ccccc1)C(=O)N[C@@H](CO)C(=O)N[C@@](C)(CCCCN)C(=O)N[C@@H](CCCNC(=N)N)C(=O)N[C@@H](C)C(=O)N[C@@H](CCCCNC(C)=O)C(N)=O)[C@@H](C)O)C(=O)O)C(=O)O)C(=O)O [compound 47] (Ac-LEGREKVRAKI[Aib][Aib]EGK([Suc-X1])STFS[αMeK]RAK(Ac)-NH2)
99%,0.1 nM,CCCCCCCCCCCCCCCC(=O)N[C@@H](CCC(=O)N[C@@H](CCC(=O)N[C@@H](CCC(=O)NCCCOCCOCCOCCCNC(=O)CCC(=O)NCCCOCCOCCOCCCNC(=O)CCC(=O)NCCCOCCOCCOCCCNC(=O)CCC(=O)NCCCC[C@H](NC(=O)CNC(=O)[C@H](CCC(=O)O)NC(=O)C(C)(C)NC(=O)C(C)(C)NC(=O)[C@@H](NC(=O)[C@H](CCCCNC(C)=O)NC(=O)[C@H](C)NC(=O)[C@H](CCCNC(=N)N)NC(=O)[C@@H](NC(=O)[C@H](CCCNC(=N)N)NC(=O)[C@H](CCC(=O)O)NC(=O)[C@H](CCCNC(=N)N)NC(=O)CNC(=O)[C@H](CCC(=O)O)NC(=O)[C@H](CC(C)C)NC(C)=O)C(C)C)[C@@H](C)CC)C(=O)N[C@@H](CO)C(=O)N[C@H](C(=O)N[C@@H](Cc1c[nH]c2ccc(F)cc12)C(=O)N[C@@H](CO)C(=O)NC(C)(C)C(=O)N[C@@H](CCCNC(=N)N)C(=O)N[C@@H](CCCNC(=N)N)C(=O)N[C@@H](CCCCNC(C)=O)C(N)=O)[C@@H](C)O)C(=O)O)C(=O)O)C(=O)O [compound 92] (Ac-LEGRERVRAK(Ac)I[Aib][Aib]EGK([Suc-X1])ST[Trp(5-F)]S[Aib]RRK(Ac)-NH2)
